Measured values reported in PMC10353061 (ACS Pharmacology & Translational Science, 2023).

How the values were obtained:
[1] = target: T1, β-catenin Armadillo repeats domain (Homo sapiens, UniProt P35222); assay: Surface plasmon resonance binding of 9 to immobilized β-catenin Armadillo repeats domain; details: SPR, 25 °C, analyte 1.95-62.5 nM, 1:1 model; read-out: ka
T1 construct: GST (N, cleaved yes); made in house; host or cells: Escherichia coli BL21(DE3)
T1 sequence (P35222 133-664): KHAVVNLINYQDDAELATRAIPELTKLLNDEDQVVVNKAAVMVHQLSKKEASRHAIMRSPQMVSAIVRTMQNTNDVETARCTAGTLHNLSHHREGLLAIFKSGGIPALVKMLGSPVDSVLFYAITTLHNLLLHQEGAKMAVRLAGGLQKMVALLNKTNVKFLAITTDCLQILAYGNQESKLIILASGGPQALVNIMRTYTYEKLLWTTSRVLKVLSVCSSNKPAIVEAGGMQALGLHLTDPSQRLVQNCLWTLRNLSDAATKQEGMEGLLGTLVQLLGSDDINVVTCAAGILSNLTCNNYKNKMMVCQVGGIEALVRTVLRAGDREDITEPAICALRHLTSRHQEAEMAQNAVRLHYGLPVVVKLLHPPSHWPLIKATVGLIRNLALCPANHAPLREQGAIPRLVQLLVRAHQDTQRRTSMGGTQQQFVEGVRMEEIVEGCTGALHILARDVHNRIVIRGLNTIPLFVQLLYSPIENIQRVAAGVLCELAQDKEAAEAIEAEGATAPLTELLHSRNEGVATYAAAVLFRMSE
Experimental: To collect detailed kinetic data of the binding measured as the rate constants of the association (ka) and dissociation (kd) of the complex, a concentration series of the analyte ranging from 1.95 up to 62.5 nM was injected over the covalently immobilized Armadillo repeats domain onto the sensor chip surface and the interaction between the analyte and the ligand was detected as a measure of the change in mass concentration upon the surface, expressed in resonance units (RUs) and compared to the baseline.
Full kinetic analysis of the binding interaction between 9 when binding to the Armadillo domain is shown in Figure 4, with the calculated binding parameters listed in the bottom table. As evidenced by the sensorgram obtained at different analyte concentrations, the dissociation rate constant of 9 is very slow, thereby resulting in a low nanomolar equilibrium affinity constant (KD) of the binding calculated as the ratio of kd/ka (Figure 4).
Figure 4 SPR kinetic analysis. […]
The analyte 9 was dialyzed in the running buffer (1% final DMSO concentration) and injected at different concentrations for 120 s onto the sensor chip at a constant flow rate of 50 μL/min. […] The equilibrium dissociation constant (KD) was determined by the ratio Koff/Kon. […]

MDA-MB-231 cells = assay: Cell proliferation by live-cell imaging (IncuCyte), MDA-MB-231 TNBC cells; format: cell-based; details: 40 μM, 48 and 72 h
Description: TNBC represents approximately 10–15% of all breast cancers and is the most aggressive subtype of breast cancer. Patients with TNBC have a poor outcome compared to the other subtypes of breast cancer. In the breast cancer tissue, β-catenin is overexpressed compared to the normal tissue. The overexpression of β-catenin is associated with TNBC and lymph node metastasis. […] There is a quest for the development of new therapies to treat TNBC. […] Effects on cell proliferation of MDA-MB-231 TNBC cells were evaluated by live-time cell imaging using the Incucyte S5 system.
Figure 10 Inhibition of MDA-MB-231, HCC1806, and HCC1937 TNBC cell growth by compounds 5–10 and reference compounds 3, […], and iCRT3 at 40 μM. Cell growth inhibition was quantified using the IncuCyte cell-by-cell analysis software, by comparison with the growth of DMSO-treated cells at 72 h, set at 100% (mean ± SD, n = 3, one-way ANOVA, **p ≤ 0.01, ****p ≤ 0.0001).
Cell proliferation of breast cancer cell lines upon continuous treatment with select compounds was evaluated by the real-time quantitative live-cell imaging system. MDA-MB-231 (1500 cells/well), HCC1806 (2000 cells/well), and HCC1937 (3000 cells/well) were seeded in 96-well plates, treated with increasing doses of selected compounds and images (5 images/well) were acquired every 8 h for 3 days at 10× magnification in an IncuCyte SX5 live-content imaging system (Essen Bioscience) at 37 °C with 5% CO2. Images were analyzed using IncuCyte cell-by-cell analysis software to detect and quantify live cells (phase-contrast). The number of cells at each time point was quantified using IncuCyte cell-by-cell analysis software, and cell growth was evaluated as the normalized ratio between counted cells at each time point normalized to those counted at time 0. Graph drawing and statistical analyses were performed in GraphPad Prism according to the statistical tests described in the figure legends.

O=S(=O)(Nc1ccc(-c2ccccn2)cc1)c1ccc(Br)cc1 [Compound 9, 4-Bromo-N-(4-(pyridin-2-yl)phenyl)benzenesulfonamide]
kon [1]: 293000 M⁻¹ s⁻¹ | effect on MDA-MB-231 cell proliferation (MDA-MB-231 cells): less effective
